Laboratory results: PubChem BioAssay AID2060892 (Molecular Pharmacology Branch, DTP, NCI, 2025)

Tested on: HOP-62 complex spheroids with HUVEC/MSC, viability
Test: Anticancer human tumor HOP-62 cell line growth inhibition [RAS];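 further: spheroids exposed to agents for seven days before readout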;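 on viability, T/C: 100% = DMSO vehicle control viability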
Details: for IC50: curve of first compound; for viability, T/C: stronger effect = lower value
Procedure, shortened: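 Agents were tested in combination matrices in half-log decrements from a top concentration at or near clinical Cmax (10 microM if undetermined). Targets were multi-cell spheroids of tumour lines plus HUVEC and MSC stromal cells.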

What does the source list for `CCN1CCN(Cc2ccc(Nc3ncc(F)c(-c4cc(F)c5nc(C)n(C(C)C)c5c4)n3)nc2)CC1` + C#Cc1c(F)ccc2cc(O)cc(-c3ncc4c(N5CC6CCC(C5)N6)nc(OCC56CCCN5CC(F)C6)nc4c3F)c12?
IC50 (second compound 0.0316 µM): > 1000 nM; IC50 (second compound 0.1 µM): > 1000 nM; IC50 (second compound 0.316 µM): > 1000 nM; IC50 (second compound 1 µM): > 1000 nM; IC50 (second compound 3.16 µM): > 1000 nM; IC50 (second compound 10 µM): < 3.16 nM; viability, T/C (second compound 0.0316 µM, first compound 0.00316 µM): 119%; viability, T/C (second compound 0.0316 µM, first compound 0.01 µM): 105%; viability, T/C (second compound 0.0316 µM, first compound 0.0316 µM): 101%; viability, T/C (second compound 0.0316 µM, first compound 0.1 µM): 90.6%; viability, T/C (second compound 0.0316 µM, first compound 0.316 µM): 95.8%; viability, T/C (second compound 0.0316 µM, first compound 1 µM): 88.1%; viability, T/C (second compound 0.1 µM, first compound 0.00316 µM): 111%; viability, T/C (second compound 0.1 µM, first compound 0.01 µM): 103%; viability, T/C (second compound 0.1 µM, first compound 0.0316 µM): 89.8%; viability, T/C (second compound 0.1 µM, first compound 0.1 µM): 91.6%; viability, T/C (second compound 0.1 µM, first compound 0.316 µM): 89.3%; viability, T/C (second compound 0.1 µM, first compound 1 µM): 66.2%; viability, T/C (second compound 0.316 µM, first compound 0.00316 µM): 109%; viability, T/C (second compound 0.316 µM, first compound 0.01 µM): 102%; viability, T/C (second compound 0.316 µM, first compound 0.0316 µM): 96.3%; viability, T/C (second compound 0.316 µM, first compound 0.1 µM): 86%; viability, T/C (second compound 0.316 µM, first compound 0.316 µM): 90.2%; viability, T/C (second compound 0.316 µM, first compound 1 µM): 81.2%; viability, T/C (second compound 1 µM, first compound 0.00316 µM): 106%; viability, T/C (second compound 1 µM, first compound 0.01 µM): 99.6%; viability, T/C (second compound 1 µM, first compound 0.0316 µM): 90.7%; viability, T/C (second compound 1 µM, first compound 0.1 µM): 82.3%; viability, T/C (second compound 1 µM, first compound 0.316 µM): 83.2%; viability, T/C (second compound 1 µM, first compound 1 µM): 67.7%; viability, T/C (second compound 3.16 µM, first compound 0.00316 µM): 84.5%; viability, T/C (second compound 3.16 µM, first compound 0.01 µM): 76%; viability, T/C (second compound 3.16 µM, first compound 0.0316 µM): 69%; viability, T/C (second compound 3.16 µM, first compound 0.1 µM): 57.9%; viability, T/C (second compound 3.16 µM, first compound 0.316 µM): 62.5%; viability, T/C (second compound 3.16 µM, first compound 1 µM): 57.7%; viability, T/C (second compound 10 µM, first compound 0.00316 µM): 46.4%; viability, T/C (second compound 10 µM, first compound 0.01 µM): 48.3%; viability, T/C (second compound 10 µM, first compound 0.0316 µM): 38.3%; viability, T/C (second compound 10 µM, first compound 0.1 µM): 45.7%; viability, T/C (second compound 10 µM, first compound 0.316 µM): 45.2%; viability, T/C (second compound 10 µM, first compound 1 µM): 42.5%
